Measured values published in US6972178B1, “Drug screening using a proline-rich nuclear receptor co-regulatory protein/nuclear receptor co-expression system” (City of Hope, priority 1999, dated 2005).

What was measured:
SF1 [1] = target: T1, SF1 (Bos taurus, UniProt Q04752); assay: Yeast two-hybrid assay (HIS3 / β-galactosidase reporter); type: cell-based, bovine; parameters: The coding region for the wild type bovine SF1 was first subcloned into a yeast expression vector, pGBT9; expressed in transfected cells; host or cells: yeast (Y187, or Y187 x CG1945 diploids); details: no ligand
Protocol: (§1) The protein-protein interactions between the full-length PNRC or PNRC fragments and SF1, ERRα1, and several other nuclear receptors were analyzed by yeast two-hybrid assays. The yeast two-hybrid assay was used to test if PNRC also interacts with other members of the nuclear receptor superfamily. pGBT9-ERRα-1 yeast expression plasmid was prepared by inserting the PCR-amplified ERRA-1 coding region into pGBT9 through an EcoRI site. To construct the plasmid pGBT9-ER274-595, the coding sequence from amino acids 274 to 595 (LBD) of ERα was amplified by PCR with the sense primer 5′-[…]-3′ (SEQ ID NO:1) and antisense primer 5′-[…]-3′ (SEQ ID NO:2) and cloned into the EcoRI/,SalI site of the pGBT9 yeast expression plasmid. pSG5-GRIP1 and several yeast expression plasmids coding for fusion proteins of Gal4-DBD and HBDs of AR, GR, PR, TR, RAR, and RXR in pGBT9 vector were kindly provided by Dr. Michael R. Stallcup (University of Southern California, Los Angeles, Calif.) (Voegel et al., 1996; Hong et al., 1996; Ding et al., 1998). The yeast mating approach was used in yeast two-hybrid assays to study protein-protein interactions as described in Clontech's protocol. Briefly, pGBT9 (DNA-BD vector only), pGBT9/target plasnmids for SF1, ERRα1, and other HBDs of nuclear receptors, and DNA-BD/control plasmids (as negative control) were introduced into the reporter strain Y187, and the AD vector alone or wild type PNRC and its deleted fragments-containing pACT2 derivatives were used to transform yeast strain CG1945. The yeast mating was performed by picking one colony from each type and growing both colonies in liquid YPD medium with or without a proper ligand at the following concentrations: 100 nM of estradiol for ER; 10 μM of deoxycorticosterone for GR; 100 nM of dihydrotestosterone for AR; 500 nM of progesterone for PR; 10 μM of T3 for TR; 10 μM of all-trans-retinoic acid for RAR; and 10 μM of 9-cis-retinoic acid for RXR. The same amount of an aliquot of the mating culture was spread on both SD/-Leu/-Trp plates to select diploid strains bearing both plasmids and SD/-Leu/-Trp/-His/+3-AT plates to score the growth of the diploid cells that express the two interacting target proteins. The His3 positive colonies were further analyzed for β-galactosidase activity by liquid β-galactosidase activity measurement as essentially described in the protocol.
(§2) Yeast strains Y187 expressing the Gal4DB fusion to the nuclear receptors and CG1945expressing Gal4AD alone or Gal4AD-PNRC fusion protein were mated by co-culturing, and selected for the presence of both two-hybrid plasmids. The expression of interacting hybrid proteins in yeast diploids was analyzed to determine if there was induction of HIS3 expression as shown in FIG. 1A and LacZ expression as shown in FIGS. 1B and 1C. […] As shown in FIGS. 1A-C, PNRC also interacted specifically with all seven nuclear receptor HBDs, including ER, AR, GR, TR, PR, RAR and RXR, and these interactions were completely ligand-dependent. […] However, no interactions occurred either between PNRC and an irrelevant protein such as human lamin C protein or between nuclear receptors and Gal4activation domain alone.

SF1 [2] = target: T1, SF1; assay: Nuclear receptor transactivation, CAT reporter in SK-BR-3 cells; type: cell-based, bovine; parameters: The coding region for the wild type bovine SF1 was first subcloned into a yeast expression vector, pGBT9; expressed in transfected cells; host or cells: yeast (Y187, or Y187 x CG1945 diploids)
Excerpt: To examine the possible biological significance of this interaction, the entire PNRC coding region was inserted into a mammalian expression vector, pSG5, and this expression plasmid was used to transiently transfect SK-BR-3 cells along with a reporter plasmid, pUMS 1.3CAT-(SF1site)3, which contains three copies of extended steroid hormone half binding site from the human aromatase gene (5′-CCAAGGTCAGAA-3′ (SEQ ID NO:3)), promoter 1.3 of the human aromatase gene, and the CAT reporter gene, along with a second expression plasmid for either SF1 (pSG5-SF1) or ERRα1 (pSG5-ERRα1) (Yang et al., 1998).
Plasmid for overexpression of PNRC in mammalian cells was made by inserting PCR-amplified fragment with BclI at both ends into the BamHI site in pSG5 vector (Stratagene). To construct mammalian expression plasmids for bovine SF1 and human ERRα1, named pSG5-bSF1 and pSGS-hERRα1, the coding regions for SF1 and ERRα1 were amplified by PCR with an EcoRI site at both ends, and inserted into an EcoRI site of the pSG5 vector. The CAT reporter plasmid, pUMS1.3CAT-(SF1site)3, was prepared by inserting 3 copies of SF1 binding site from human aromatase gene, 5′-CCAAGGTCAGAA-3′ (SEQ ID NO:3), into pUMS-64/+5CAT (Zhou and Chen, 1999) through a HindIII site. […]

TR HBD = assay: Yeast two-hybrid assay (HIS3 / β-galactosidase reporter); type: cell-based; details: 10 μM of T3
Protocol: as §1, §2

AR HBD = target: T2, AR HBD (Homo sapiens, UniProt P10275); assay: as above; type: cell-based; details: 100 nM of dihydrotestosterone
T2 construct: fusion proteins of Gal4-DBD and HBDs of AR, GR, PR, TR, RAR, and RXR in pGBT9 vector; expressed in transfected cells; host or cells: yeast Y187 x CG1945 diploids; plasmid a gift of M. R. Stallcup
Protocol: as §1, §2

RAR HBD = assay: as above; type: cell-based; details: 10 μM of all-trans-retinoic acid
Protocol: as §1, §2

ER (ERα LBD, aa 274-595) = target: T3, ER (ERα LBD, aa 274-595) (Homo sapiens, UniProt P03372); assay: as above; type: cell-based; details: 100 nM of estradiol
T3 construct: expressed in transfected cells; host or cells: yeast Y187 x CG1945 diploids
Protocol: as §1, §2

RXR HBD = assay: as above; type: cell-based; details: 10 μM of 9-cis-retinoic acid
Protocol: as §1, §2

GR HBD = assay: as above; type: cell-based; details: 10 μM of deoxycorticosterone
Protocol: as §1, §2

PR HBD = assay: as above; type: cell-based; details: 500 nM of progesterone
Protocol: as §1, §2

T1 sequence (Q04752 whole entry, the tested form may be a part): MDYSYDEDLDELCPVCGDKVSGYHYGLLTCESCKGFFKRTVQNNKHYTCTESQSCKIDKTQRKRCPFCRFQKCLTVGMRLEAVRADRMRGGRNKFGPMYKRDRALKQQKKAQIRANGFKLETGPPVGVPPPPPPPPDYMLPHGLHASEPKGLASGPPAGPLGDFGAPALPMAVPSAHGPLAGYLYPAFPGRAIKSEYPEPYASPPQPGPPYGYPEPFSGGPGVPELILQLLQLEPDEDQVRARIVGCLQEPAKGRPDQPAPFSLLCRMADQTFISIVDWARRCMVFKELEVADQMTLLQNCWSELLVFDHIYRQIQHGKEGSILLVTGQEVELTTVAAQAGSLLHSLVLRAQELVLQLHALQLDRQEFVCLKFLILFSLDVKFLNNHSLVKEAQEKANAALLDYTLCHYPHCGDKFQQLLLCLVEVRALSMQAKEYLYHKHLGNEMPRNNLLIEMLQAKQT
T3 sequence (P03372 274-595): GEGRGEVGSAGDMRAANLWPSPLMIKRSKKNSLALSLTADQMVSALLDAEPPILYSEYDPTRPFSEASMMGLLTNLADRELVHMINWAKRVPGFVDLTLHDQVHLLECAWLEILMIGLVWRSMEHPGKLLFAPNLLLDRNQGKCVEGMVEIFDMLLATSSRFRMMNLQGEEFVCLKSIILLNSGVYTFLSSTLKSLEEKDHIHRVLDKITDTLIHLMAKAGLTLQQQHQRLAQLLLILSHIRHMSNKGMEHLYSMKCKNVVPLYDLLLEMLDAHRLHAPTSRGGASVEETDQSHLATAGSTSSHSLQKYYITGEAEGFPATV
T3 sequence (Q12796 whole entry partner, the tested form may be a part): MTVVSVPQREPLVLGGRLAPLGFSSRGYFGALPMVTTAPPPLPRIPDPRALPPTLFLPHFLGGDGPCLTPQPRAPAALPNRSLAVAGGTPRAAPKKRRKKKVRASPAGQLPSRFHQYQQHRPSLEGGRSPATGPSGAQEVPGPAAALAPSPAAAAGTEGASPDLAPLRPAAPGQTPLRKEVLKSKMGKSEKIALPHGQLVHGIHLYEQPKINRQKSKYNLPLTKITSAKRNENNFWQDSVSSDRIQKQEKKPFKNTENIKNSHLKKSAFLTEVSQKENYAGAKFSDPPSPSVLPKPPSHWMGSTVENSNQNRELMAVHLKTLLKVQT
T2 sequence (P10275 669-900 limits assumed): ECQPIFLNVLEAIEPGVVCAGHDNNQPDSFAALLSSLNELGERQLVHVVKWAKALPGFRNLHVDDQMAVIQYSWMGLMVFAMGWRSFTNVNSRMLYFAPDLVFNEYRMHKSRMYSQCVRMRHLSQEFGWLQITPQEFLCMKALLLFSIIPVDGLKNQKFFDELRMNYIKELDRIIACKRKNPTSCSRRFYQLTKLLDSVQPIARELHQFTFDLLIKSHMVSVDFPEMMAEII
T2 sequence (Q12796 whole entry partner, the tested form may be a part): as the sequence (Q12796 whole entry partner, the tested form may be a part) above
Chain of PR HBD (P06401 679-933 limits assumed): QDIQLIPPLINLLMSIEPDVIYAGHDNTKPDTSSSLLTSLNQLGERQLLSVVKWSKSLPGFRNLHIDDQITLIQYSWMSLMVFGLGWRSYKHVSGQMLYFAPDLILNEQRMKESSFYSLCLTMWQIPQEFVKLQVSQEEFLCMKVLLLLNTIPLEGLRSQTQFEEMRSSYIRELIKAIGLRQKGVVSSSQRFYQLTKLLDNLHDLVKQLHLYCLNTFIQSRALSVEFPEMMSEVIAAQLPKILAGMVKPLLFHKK

- interaction with TR (TR HBD): interacts strongly
- interaction with AR (AR HBD): only weak interactions were detected
- interaction with RAR (RAR HBD): only weak interactions were detected
- interaction with ER (ER (ERα LBD, aa 274-595)): only weak interactions were detected
- interaction with RXR (RXR HBD): interacts strongly
- interaction with GR (GR HBD): only weak interactions were detected
- interaction with PR (PR HBD): interacts strongly
Substance: PNRC: proline-rich nuclear receptor co-regulatory protein, 327 aa, SEQ ID NO:8, nuclear receptor coactivator
- interaction with SF1 (SF1 [1]): interacted with orphan receptors SF1 and ERRα1 in the absence of any added activator or ligand
- effect on SF1-stimulated transcription by promoter 1.3 of the human aromatase gene (SF1 [2]): enhanced both SF1-stimulated and ERRα1-stimulated transcription
